The source of these data is US20260274800A1, “Heterocyclic Compound And Use Thereof In Medicine” (Kangbaida (Sichuan) Biotechnology Co., Ltd., priority 2023, published 2026).

Molecules are shown by their SMILES.

T1 sequence (Q96LA9 whole entry): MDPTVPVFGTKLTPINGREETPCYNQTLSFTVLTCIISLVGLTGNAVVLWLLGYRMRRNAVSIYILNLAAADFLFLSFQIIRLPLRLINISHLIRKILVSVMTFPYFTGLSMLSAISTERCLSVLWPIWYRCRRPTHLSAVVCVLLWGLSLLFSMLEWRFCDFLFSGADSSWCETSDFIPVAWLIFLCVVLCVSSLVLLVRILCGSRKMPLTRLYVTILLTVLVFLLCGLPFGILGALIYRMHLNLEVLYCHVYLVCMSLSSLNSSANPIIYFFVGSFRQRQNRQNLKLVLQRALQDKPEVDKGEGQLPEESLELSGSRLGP

One data set concerns the target T1, MRGPRX4 (Homo sapiens, UniProt Q96LA9).
T1 construct: expressed in transfected cells
As to the kind of experiment: Detection of MRGPRX4 activity (IP1 HTRF, deoxycholic acid stimulation). In kind it is cell-based. The conditions noted are these: HEK-293 cells stably expressing MRGPRX4; compound 45 min, then deoxycholic acid 45 min; IP1 content by HTRF. On the procedure:
HEK-293 cells stably expressing MRGPRX4 were cultured in a DMEM medium containing 10% of FBS and 1% of a double antibody under the culture conditions of 37° C. and 5% CO2. Cells in the exponential growth phase were collected and inoculated into a 384-well plate at an inoculation density of 2×10^4 cells/well, with 10 μL per well. 2 μL/well of a gradient-diluted compound was added and co-incubated with the cells for 45 min. After the incubation was complete, 2 μL/well of deoxycholic acid (MCE, Cat: #HY-N0593) was added to continue the incubation for 45 min. After the incubation was complete, IP-one Gq kit (PE, Cat: #62IPAPEB) was used to detect the content of IP1 according to the instructions. HTRF values were substituted into GraphPad 8.0, and IC50 was calculated by fitting.
In general terms: TR-FRET usually uses a lanthanide donor and a delayed reading to cut background.
For `O=C(O)c1cccc(Cn2ccc3cc(Cl)cc(Cl)c32)c1F` [Compound 5, 3-((5,7-Dichloro-1H-indol-1-yl)methyl)-2-fluorobenzoic acid], the IC50 (as a rule, the concentration needed to halve the response being measured) is at most 0.2 µM.
Same read-out and setting: the result for `O=C(O)c1cccc(Cn2ccc3cc(Cl)c(Cl)cc32)c1F` [Compound 6, 3-((5,6-Dichloro-1H-indol-1-yl)methyl)-2-fluorobenzoic acid] reads at most 0.2 µM; that for `O=C(O)c1cccc(Cn2ccc3cc(C(F)(F)F)cc(Br)c32)c1F` [Compound 15, 3-((7-Bromo-5-(trifluoromethyl)-1H-indol-1-yl)methyl)-2-fluorobenzoic acid], at most 0.2 µM; that for `Cc1cc(C(F)(F)F)cc2ccn(Cc3cccc(C(=O)O)c3F)c12` [Compound 16, 3-((7-Methyl-5-(trifluoromethyl)-1H-indol-1-yl)methyl)-2-fluorobenzoic acid], at most 0.2 µM.
For the compound `O=C(O)c1cccc(Cn2ncc3cc(C(F)(F)F)cc(Br)c32)c1F` [Compound 22, 3-((7-Bromo-5-(trifluoromethyl)-1H-indazol-1-yl)methyl)-2-fluorobenzoic acid], the IC50 is 0.2 to 0.5 µM.
Turning to `O=C(O)c1cccc(Cn2ncc3cc(OC(F)(F)F)cc(Br)c32)c1F` [Compound 27, 3-((7-Bromo-5-(trifluoromethoxy)-1H-indazol-1-yl)methyl)-2-fluorobenzoic acid], the IC50 was at most 0.2 µM.
In the case of `O=C(O)c1cccc(Cn2ncc3cc(Cl)c(Cl)c(Cl)c32)c1F` [Compound 28, 2-Fluoro-3-((5,6,7-trichloro-1H-indazol-1-yl)methyl)benzoic acid], the IC50 was at most 0.2 µM.
Same read-out and setting: the result for `O=C(O)c1cccc(Cn2ncc3cc(Cl)cc(Cl)c32)c1F` [Compound 30, 3-((5,7-Dichloro-1H-indazol-1-yl)methyl)-2-fluorobenzoic acid] reads at most 0.2 µM; that for `O=C(O)c1cccc(Cn2ncc3cc(Cl)cc(Br)c32)c1F` [Compound 36, 3-((7-Bromo-5-chloro-1H-indazol-1-yl)methyl)-2-fluorobenzoic acid], at most 0.2 µM.
On the same count and under the same terms, the result for `CC(c1cccc(C(=O)O)c1F)n1ncc2cc(Cl)c(Cl)c(Cl)c21` (stereo not drawn) [Compound 39, 2-Fluoro-3-(1-(5,6,7-trichloro-1H-indazol-1-yl)ethyl)benzoic acid] reads at most 0.2 µM; that for `O=C(O)c1cc(Cn2ncc3cc(C(F)(F)F)cc(Br)c32)ccc1F` [Compound 41, 5-((7-Bromo-5-(trifluoromethyl)-1H-indazol-1-yl)methyl)-2-fluorobenzoic acid], 0.5 to 1 µM; that for `O=C(O)c1cccc(Cn2ncc3c(F)c(Cl)ccc32)c1F` [Compound 48, 3-((5-Chloro-4-fluoro-1H-indazol-1-yl)methyl)-2-fluorobenzoic acid], 0.2 to 0.5 µM.
In the case of `O=C(O)c1cccc(Cn2ncc3cc(Cl)c(F)c(Cl)c32)c1F` [Compound 51, 3-((5,7-Dichloro-6-fluoro-1H-indazol-1-yl)methyl)-2-fluorobenzoic acid], the IC50 is at most 0.2 µM.
Still for that read-out and setting: the result for `Cc1ccc2c(ccn2Cc2cccc(C(=O)O)c2F)c1Cl` [Compound 62, 3-((4-Chloro-5-methyl-1H-indol-1-yl)methyl)-2-fluorobenzoic acid] reads at most 0.2 µM; that for `O=C(O)c1cccc(Cn2ccc3c(F)c(Cl)ccc32)c1F` [Compound 66, 3-((5-Chloro-4-fluoro-1H-indol-1-yl)methyl)-2-fluorobenzoic acid], at most 0.2 µM.
On the same count and under the same terms, under `N#Cc1ccc2c(ccn2Cc2cccc(C(=O)O)c2F)c1Cl` [Compound 74, 3-((4-Chloro-5-cyano-1H-indol-1-yl)methyl)-2-fluorobenzoic acid] stands at most 0.2 µM; under `O=C(O)c1cccc(Cn2ccc3c(Cl)cc(Cl)cc32)c1F` [Compound 79, 3-((4,6-Dichloro-1H-indol-1-yl)methyl)-2-fluorobenzoic acid], at most 0.2 µM; under `O=C(O)c1cccc(Cn2ccc3c(Cl)ccc(Cl)c32)c1F` [Compound 80, 3-((4,7-Dichloro-1H-indol-1-yl)methyl)-2-fluorobenzoic acid], 0.5 to 1 µM.
For `O=C(O)c1cccc(Cn2ccc3c(Cl)c(Cl)ccc32)c1F` [Compound 81, 3-((4,5-Dichloro-1H-indol-1-yl)methyl)-2-fluorobenzoic acid], the IC50 is at most 0.2 µM.
Still for that read-out and setting: the result for `O=C(O)c1cccc(Cn2ccc3cc(Cl)cc(Cl)c32)c1Cl` [Compound 82, 2-Chloro-3-((5,7-dichloro-1H-indol-1-yl)methyl)benzoic acid] reads 0.2 to 0.5 µM.
On the same count and under the same terms, the result for `Cc1cc(OC(F)(F)F)cc2ccn(Cc3cccc(C(=O)O)c3F)c12` [Compound 87, 2-Fluoro-3-((7-methyl-5-(trifluoromethoxy)-1H-indol-1-yl)methyl)benzoic acid] reads at most 0.2 µM.

Test system in the next data set: not listed separately
The experiment in a line: Study of pharmacokinetics in mice in vivo. The conditions noted are these: male, C57BL/6, mouse, po (intragastric), 50 mg/kg, plasma. More on the design: species or system C57BL/6 mice. As for the experimental part:
An appropriate amount of the test substance was weighed, and the test substance was prepared into a 2 mg/mL transparent clear solution using 5% DMSO+5% HS-15 (Solutol HS-15)+90% D5W (5% glucose) for intravenous administration. The test substance was prepared into a 5 mg/mL uniform suspension using 5% DMSO+5% HS-15+90% PBS for intragastric administration.
18 healthy male C57BL/6 mice (GemPharmatech Co., Ltd., SPF grade) were taken. The intravenous administration group and the intragastric administration group respectively had 9 animals. At each time point, blood samples were taken from 3 animals via an orbital microsampling method, with a sampling volume of approximately 0.04 mL per animal per time point.
For intravenous administration of the test substance (10 mg/kg), blood samples were taken before administration and at 5 min, 15 min, 0.5 h, 1 h, 2 h, 4 h, 8 h, and 24 h after administration, and for intragastric administration of the test substance (50 mg/kg), blood samples were taken before administration and at 15 min, 0.5 h, 1 h, 2 h, 4 h, 8 h, and 24 h after administration. After anticoagulation with EDTA-K2, the blood samples were centrifuged at 6000 g at 4° C. for 5 min to separate plasma, and all plasma samples were stored at −70° C. for testing. The drug concentration of the test substance in plasma was determined by LC-MS/MS method (with tolbutamide as an internal standard), and the main pharmacokinetic parameters were calculated by Winnolin 8.3 non-compartment model.
Regarding `O=C(O)c1cccc(Cn2ccc3cc(Cl)cc(Cl)c32)c1F` [Compound 5, 3-((5,7-Dichloro-1H-indol-1-yl)methyl)-2-fluorobenzoic acid], the AUC – broadly, concentration integrated over time – turned out to be 725 µg·h/mL; the concentration peaked (Cmax) at 121 µg/mL; the half-life (as a rule, how long it takes for the measured level to halve) was 3.49 h.
With `Cc1cc(C(F)(F)F)cc2ccn(Cc3cccc(C(=O)O)c3F)c12` [Compound 16, 3-((7-Methyl-5-(trifluoromethyl)-1H-indol-1-yl)methyl)-2-fluorobenzoic acid], the AUC was 612 µg·h/mL, the highest level (Cmax) was 93 µg/mL and the half-life is 3.39 h.
The corresponding values for `O=C(O)c1cccc(Cn2ncc3cc(Cl)c(Cl)c(Cl)c32)c1F` [Compound 28, 2-Fluoro-3-((5,6,7-trichloro-1H-indazol-1-yl)methyl)benzoic acid] are 1580 µg·h/mL, 132 µg/mL and 9.81 h.
